{"source": "patent US8927009B2", "about": "(AbbVie Inc., priority 2009, dated 2015)", "assay_type_in_all_cases": "physicochemical", "key": {"[1]": {"assay": "Solubility in lipid solvents and solvent mixtures in ambient conditions", "settings": "listed as bis-HCl salt", "method": "Solubility of ABT-263 parent (free base, crystalline Form I) and ABT-263 bis-HCl salt was tested in a variety of lipid solvents and solvent mixtures in ambient conditions. Trademarked solvents in this study, unless identified hereinabove, are as follows (substantially equivalent products from other manufacturers can be substituted if available): • Miglyol 810™ of Sasol: caprylic/capric triglycerides; • Capmul MCM™ of Abitec: glyceryl caprylate/caprate; • Captex 300™ of Abitec: caprylic/capric triglycerides; • Labrafil M 2125 CS™ of Gattefossé: polyoxyethylene glyceryl linoleate; • Tween 20™ of Uniqema: polysorbate 20; • Labrasol™ of Gattefossé: polyoxyethylene glyceryl caprylate/caprate; • Cremophor RH40™: polyoxyethyene (40) hydrogenated castor oil. “PE-91” is Phosal 53 MCT™+ethanol, 9:1 by volume. “LOT-343” is Labrafil M 1944 CS™+oleic acid+Tween 80™, 30:40:30 by weight.\nIn some cases, indicated in Table 4 by an asterisk (*), solubility was initially high but precipitation occurred upon standing."}, "[2]": {"assay": "Drug solubility in ternary excipient systems", "design": "key: ✓: vehicle miscible, or drug fully dissolved in vehicle", "settings": "10% salt, 20% free base", "source_text": "(§1) Solvents evaluated included Labrafil M 1944 CS™, Imwitor 742™, oleic acid, Capmul PG-8™, Capmul PG-12™, Lauroglycol 90™ (propylene glycol monolaurate, available from Gattefossé) and Phosal 53 MCT™. Surfactants evaluated included Tween 80™, Cremophor RH40™, Gelucire 44/14™ (polyoxyethylene glyceryl laurate, available from Gattefossé) and Labrasol™."}, "[3]": {"assay": "Drug solubility in ternary excipient systems", "design": "key: ✓: vehicle miscible, or drug fully dissolved in vehicle; x: vehicle immiscible or miscible but turbid, or residual solids present (due to undissolved drug or precipitation)", "settings": "10% salt, 20% free base", "source_text": "as §1"}}, "note": "Structures can show the parent of a compound that is named as a salt.", "data": [{"smiles": "CC1(C)CCC(c2ccc(Cl)cc2)=C(CN2CCN(c3ccc(C(=O)NS(=O)(=O)c4ccc(N[C@H](CCN5CCOCC5)CSc5ccccc5)c(S(=O)(=O)C(F)(F)F)c4)cc3)CC2)C1", "note": "[ABT-263 bis-HCl]", "values": [{"measurement": "Solubility", "setting": "[1]; in Capmul PG-8, ambient conditions", "value": "<43", "unit": "mg/g"}, {"measurement": "Solubility", "setting": "[1]; in Capmul PG-12, ambient conditions", "value": "<39", "unit": "mg/g"}, {"measurement": "Solubility", "setting": "[1]; in Captex 300, ambient conditions", "value": "<52", "unit": "mg/g"}, {"measurement": "Solubility", "setting": "[1]; in Labrafil M 1944 CS, ambient conditions", "value": "<45", "unit": "mg/g"}, {"measurement": "Solubility", "setting": "[1]; in Labrafil M 2125 CS, ambient conditions", "value": "<44", "unit": "mg/g"}, {"measurement": "Solubility", "setting": "[1]; in PE-91 (Phosal 53 MCT + ethanol 9:1 by volume), ambient conditions", "value": 89, "unit": "mg/g"}, {"measurement": "Solubility", "setting": "[1]; in poloxamer 124, ambient conditions", "value": "<41", "unit": "mg/g"}, {"measurement": "Solubility", "setting": "[1]; in sesame oil, ambient conditions", "value": "<80", "unit": "mg/g"}, {"measurement": "ABT-263 solubility", "setting": "[2]; Capmul PG-8/Labrafil M 1944 CS/Labrasol (C8LL) 40:40:20 % by weight", "value": "✓"}, {"measurement": "ABT-263 solubility", "setting": "[2]; Capmul PG-12/Labrafil M 1944 CS/Tween 80 (C12LT) 30:40:30 % by weight", "value": "✓"}, {"measurement": "ABT-263 solubility", "setting": "[2]; Capmul PG-12/Labrafil M 1944 CS/Tween 80 (C12LT) 35:40:25 % by weight", "value": "✓"}, {"measurement": "ABT-263 solubility", "setting": "[2]; Capmul PG-12/Labrafil M 1944 CS/Tween 80 (C12LT) 40:30:30 % by weight", "value": "✓"}, {"measurement": "ABT-263 solubility", "setting": "[2]; Capmul PG-12/Labrafil M 1944 CS/Tween 80 (C12LT) 45:30:25 % by weight", "value": "✓"}, {"measurement": "ABT-263 solubility", "setting": "[2]; Imwitor 742/Labrafil M 1944 CS/Cremophor RH40 (ILC) 40:40:20 % by weight, listed as salt", "value": "✓"}, {"measurement": "ABT-263 solubility", "setting": "[2]; Imwitor 742/Labrafil M 1944 CS/Cremophor RH40 (ILC) 50:30:20 % by weight, listed as salt", "value": "✓"}, {"measurement": "ABT-263 solubility", "setting": "[2]; Imwitor 742/Labrafil M 1944 CS/Cremophor RH40 (ILC) 50:40:10 % by weight, listed as salt", "value": "✓"}, {"measurement": "ABT-263 solubility", "setting": "[2]; Imwitor 742/Labrafil M 1944 CS/Cremophor RH40 (ILC) 60:30:10 % by weight, listed as salt", "value": "✓"}, {"measurement": "ABT-263 solubility", "setting": "[2]; Imwitor 742/Labrafil M 1944 CS/Labrasol (ILL) 40:40:20 % by weight, listed as salt", "value": "✓"}, {"measurement": "ABT-263 solubility", "setting": "[2]; Imwitor 742/Labrafil M 1944 CS/Labrasol (ILL) 50:30:20 % by weight, listed as salt", "value": "✓"}, {"measurement": "ABT-263 solubility", "setting": "[2]; Imwitor 742/Labrafil M 1944 CS/Labrasol (ILL) 50:40:10 % by weight, listed as salt", "value": "✓"}, {"measurement": "ABT-263 solubility", "setting": "[2]; Imwitor 742/Labrafil M 1944 CS/Labrasol (ILL) 60:30:10 % by weight, listed as salt", "value": "✓"}, {"measurement": "ABT-263 solubility", "setting": "[2]; Labrafil M 1944 CS/Imwitor 742/Tween 80 (LIT) 30:40:30 % by weight, listed as salt", "value": "✓"}, {"measurement": "ABT-263 solubility", "setting": "[2]; Labrafil M 1944 CS/Imwitor 742/Tween 80 (LIT) 30:45:25 % by weight, listed as salt", "value": "✓"}, {"measurement": "ABT-263 solubility", "setting": "[2]; Labrafil M 1944 CS/Imwitor 742/Tween 80 (LIT) 40:30:30 % by weight, listed as salt", "value": "✓"}, {"measurement": "ABT-263 solubility", "setting": "[2]; Labrafil M 1944 CS/Imwitor 742/Tween 80 (LIT) 40:35:25 % by weight, listed as salt", "value": "✓"}, {"measurement": "ABT-263 solubility", "setting": "[2]; Labrafil M 1944 CS/oleic acid/Cremophor RH40 (LOC) 30:60:10 % by weight", "value": "✓"}, {"measurement": "ABT-263 solubility", "setting": "[2]; Labrafil M 1944 CS/oleic acid/Cremophor RH40 (LOC) 40:50:10 % by weight", "value": "✓"}, {"measurement": "ABT-263 solubility", "setting": "[2]; Labrafil M 1944 CS/oleic acid/Tween 80 (LOT) 30:40:30 % by weight", "value": "✓"}, {"measurement": "ABT-263 solubility", "setting": "[2]; Labrafil M 1944 CS/oleic acid/Tween 80 (LOT) 30:45:25 % by weight", "value": "✓"}, {"measurement": "ABT-263 solubility", "setting": "[2]; Labrafil M 1944 CS/oleic acid/Tween 80 (LOT) 40:30:30 % by weight", "value": "✓"}, {"measurement": "ABT-263 solubility", "setting": "[2]; Labrafil M 1944 CS/oleic acid/Tween 80 (LOT) 40:35:25 % by weight", "value": "✓"}, {"measurement": "ABT-263 solubility", "setting": "[2]; Lauroglycol 90/Labrafil M 1944 CS/Cremophor RH40 (LLC) 45:30:25 % by weight", "value": "✓"}, {"measurement": "ABT-263 solubility", "setting": "[2]; Lauroglycol 90/Labrafil M 1944 CS/Labrasol (LLL) 40:40:20 % by weight", "value": "✓"}, {"measurement": "ABT-263 solubility", "setting": "[2]; Lauroglycol 90/Labrafil M 1944 CS/Labrasol (LLL) 50:30:20 % by weight", "value": "✓"}, {"measurement": "ABT-263 solubility", "setting": "[2]; Lauroglycol 90/Labrafil M 1944 CS/Labrasol (LLL) 50:40:10 % by weight, listed as salt", "value": "✓"}, {"measurement": "ABT-263 solubility", "setting": "[2]; Lauroglycol 90/Labrafil M 1944 CS/Labrasol (LLL) 60:30:10 % by weight, listed as salt", "value": "✓"}, {"measurement": "ABT-263 solubility", "setting": "[2]; oleic acid/Labrafil M 1944 CS/Labrasol (OLL) 40:40:20 % by weight", "value": "✓"}, {"measurement": "ABT-263 solubility", "setting": "[2]; oleic acid/Labrafil M 1944 CS/Labrasol (OLL) 50:30:20 % by weight", "value": "✓"}, {"measurement": "ABT-263 solubility", "setting": "[2]; oleic acid/Labrafil M 1944 CS/Labrasol (OLL) 50:40:10 % by weight", "value": "✓"}, {"measurement": "ABT-263 solubility", "setting": "[2]; oleic acid/Labrafil M 1944 CS/Labrasol (OLL) 60:30:10 % by weight", "value": "✓"}, {"measurement": "ABT-263 solubility", "setting": "[3]; Capmul PG-8/Labrafil M 1944 CS/Cremophor RH40 (C8LC) 40:40:20 % by weight", "value": "x"}, {"measurement": "ABT-263 solubility", "setting": "[3]; Capmul PG-8/Labrafil M 1944 CS/Cremophor RH40 (C8LC) 50:30:20 % by weight", "value": "x"}, {"measurement": "ABT-263 solubility", "setting": "[3]; Capmul PG-8/Labrafil M 1944 CS/Cremophor RH40 (C8LC) 50:40:10 % by weight", "value": "x"}, {"measurement": "ABT-263 solubility", "setting": "[3]; Capmul PG-8/Labrafil M 1944 CS/Cremophor RH40 (C8LC) 60:30:10 % by weight", "value": "x"}, {"measurement": "ABT-263 solubility", "setting": "[3]; Capmul PG-8/Labrafil M 1944 CS/Labrasol (C8LL) 50:30:20 % by weight", "value": "x"}, {"measurement": "ABT-263 solubility", "setting": "[3]; Capmul PG-8/Labrafil M 1944 CS/Labrasol (C8LL) 50:40:10 % by weight", "value": "x"}, {"measurement": "ABT-263 solubility", "setting": "[3]; Capmul PG-8/Labrafil M 1944 CS/Labrasol (C8LL) 60:30:10 % by weight", "value": "x"}, {"measurement": "ABT-263 solubility", "setting": "[3]; Capmul PG-8/Labrafil M 1944 CS/Tween 80 (C8LT) 30:40:30 % by weight", "value": "x"}, {"measurement": "ABT-263 solubility", "setting": "[3]; Capmul PG-8/Labrafil M 1944 CS/Tween 80 (C8LT) 35:40:25 % by weight", "value": "x"}, {"measurement": "ABT-263 solubility", "setting": "[3]; Capmul PG-8/Labrafil M 1944 CS/Tween 80 (C8LT) 40:30:30 % by weight", "value": "x"}, {"measurement": "ABT-263 solubility", "setting": "[3]; Capmul PG-8/Labrafil M 1944 CS/Tween 80 (C8LT) 45:30:25 % by weight", "value": "x"}]}]}
